These results are taken from US8921071B2, “Targeting poly-gamma-glutamic acid to treat Staphylococcus epidermidis and related infections” (priority 2005, dated 2014).

No end group written: not given here.

The test system of this assay is S. epidermidis. Description: Peptide bacterial killing assay. The settings on record: S. epidermidis Δcap versus wild-type; approximately 10^5 cells; 0-40 μg/ml peptide; 2 hours at 37° C.; survivors counted by plating. The format is cell-based, Staphylococcus epidermidis. On the procedure: S. epidermidis cultures were harvested, washed with PBS buffer, and resuspended in 10 mM sodium phosphate buffer (pH 7.0). Bacterial killing assays were performed using a final concentration of approximately 10^5 S. epidermidis cells in each sample. Antimicrobial peptides were dissolved in the following solutions: human β-defensin 3, 10 mM acetic acid, and LL-37, 10% acetonitrile with 0.1% trifluoroacetic acid. The bacteria were exposed to a range of antimicrobial peptide concentrations (0, 5, 10, 20, 30, and 40 μg/ml). An equal volume of the respective peptide dilution buffer was applied to control samples. Samples were incubated at 37° C. for 2 hours and appropriate dilution series of the samples were plated on TSB agar. Survivor S. epidermidis cells were enumerated after 24 hours of incubation at 37° C. The percentage of killed S. epidermidis was calculated using the formula (1−[CFUpeptide/CFUcontrol])×100.
Resistance to cationic antimicrobial peptides was determined by incubating washed S. epidermidis cells (approximately 10^5) with LL-37 or human β-defensin 3 in various concentrations of antimicrobial peptides for 2 hours at 37° C. Thereafter, S. epidermidis survivor cells were counted by plating. Results are shown as dose-response curves. […] Values of significance were calculated against the wild-type (for Δcap) and Δcap (for capBCAD) strains.

Consider “LL-37 (LLGDFFRKSKEKIGKEFKRIVQRIKDFLRNLVPRTES; Antibacterial peptide LL-37; UniProt P49913 134-170, looked up) [representative cationic antibacterial peptide from human skin and neutrophil specific granules]”, for which the “resistance of the cap mutant strain to antibacterial peptide” value is reported as “significantly reduced resistance”.

Turning to “human β-defensin 3 (GIINTLQKYYCRVRGGRCAVLSCLPKEEQIGKCSTRGRKCCRRKK; ends and bridges not checked; cysteine pairing not given here; UniProt P81534 23-67, looked up) [representative cationic antibacterial peptide from human skin and neutrophil specific granules]”, the “resistance of the cap mutant strain to antibacterial peptide” value is “significantly reduced resistance”.
